# Laboratory results reported in ChEMBL document CHEMBL5543084, “Development of cannabidiol derivatives as potent broad-spectrum antibacterial agents with membrane-disruptive mechanism” (Eur J Med Chem, 2024).
# Activity calls are given as the source filed them. The calls are words filed in the database; no cut-off is given here.
# How the values were obtained:
# Staphylococcus aureus [1] = assay: Antibacterial activity against Staphylococcus aureus ATCC 29213 assessed as inhibition of bacterial growth incubated for 24 hrs by broth dilution method; assay type: functional
# Staphylococcus aureus [2] = assay: Antibacterial activity against methicillin-resistant Staphylococcus aureus N315 assessed as inhibition of bacterial growth incubated for 24 hrs by broth dilution method; assay type: functional
# Escherichia coli [3] = assay: Antibacterial activity against Escherichia coli ATCC 25922 assessed as inhibition of bacterial growth incubated for 24 hrs by broth dilution method; assay type: functional
# Acinetobacter baumannii = assay: Antibacterial activity against Acinetobacter baumannii ATCC 17978 assessed as inhibition of bacterial growth incubated for 24 hrs by broth dilution method; assay type: functional
# Klebsiella pneumoniae [4] = assay: Antibacterial activity against Klebsiella pneumoniae ATCC 10031 assessed as inhibition of bacterial growth incubated for 24 hrs by broth dilution method; assay type: functional
# [5] = Hemolytic activity against rabbit blood cells incubated for 1 hr relative to control; assay type: toxicity, cell-based, Oryctolagus cuniculus, Erythrocyte; conditions: rabbit blood cells (erythrocytes)
# Staphylococcus aureus [6] = assay: Antibacterial activity against Staphylococcus aureus ATCC 29213 assessed as inhibition of bacterial growth incubated for 24 hrs in presence of 140 mM Na+ by broth dilution method; assay type: functional
# Klebsiella pneumoniae [7] = assay: Antibacterial activity against Klebsiella pneumoniae ATCC 10031 assessed as inhibition of bacterial growth incubated for 24 hrs in presence of 140 mM Na+ by broth dilution method; assay type: functional
# Staphylococcus aureus [8] = assay: Antibacterial activity against Staphylococcus aureus ATCC 29213 assessed as inhibition of bacterial growth incubated for 24 hrs in presence of 2.5 mM Ca2+ by broth dilution method; assay type: functional
# Staphylococcus aureus [9] = assay: Antibacterial activity against methicillin-resistant Staphylococcus aureus NCTC 10442 assessed as inhibition of bacterial growth incubated for 24 hrs in presence of 1 mM Mg2+ by broth dilution method; assay type: functional
# Staphylococcus aureus [10] = assay: Antibacterial activity against methicillin-resistant Staphylococcus aureus NCTC 10442 assessed as inhibition of bacterial growth incubated for 24 hrs in presence of 19 uM Zn2+ by broth dilution method; assay type: functional
# Klebsiella pneumoniae [11] = assay: Antibacterial activity against Klebsiella pneumoniae ATCC 10031 assessed as inhibition of bacterial growth incubated for 24 hrs in presence of 19 uM Zn2+ by broth dilution method; assay type: functional
# Staphylococcus aureus [12] = assay: Antibacterial activity against Staphylococcus aureus ATCC 29213 assessed as inhibition of bacterial growth incubated for 24 hrs in presence of 20 uM Fe2+ by broth dilution method; assay type: functional
# Escherichia coli [13] = assay: Antibacterial activity against Escherichia coli ATCC 25922 assessed as inhibition of bacterial growth incubated for 24 hrs in presence of 20 uM Fe2+ by broth dilution method; assay type: functional
# Klebsiella pneumoniae [14] = assay: Antibacterial activity against Klebsiella pneumoniae ATCC 10031 assessed as inhibition of bacterial growth incubated for 24 hrs in presence of 20 uM Fe2+ by broth dilution method; assay type: functional
# Staphylococcus aureus [15] = assay: Antibacterial activity against Staphylococcus aureus ATCC 29213 assessed as inhibition of bacterial growth incubated for 24 hrs in presence of 20 uM Fe3+ by broth dilution method; assay type: functional
# Klebsiella pneumoniae [16] = assay: Antibacterial activity against Klebsiella pneumoniae ATCC 10031 assessed as inhibition of bacterial growth incubated for 24 hrs in presence of 20 uM Fe3+ by broth dilution method; assay type: functional
# [17] = Cytotoxicity against mouse fibroblast NCTC clone 929 cells assessed as viable cells at 12.5 microg/ml incubated for 24 hrs by CCK-8 assay; assay type: toxicity, cell-based; conditions: NCTC clone 929 (L929) fibroblast cells, at 12.5 µg/mL, read-out: Activity
# [18] = Cytotoxicity against human HepG2 cells assessed as viable cells at 12.5 microg/ml incubated for 24 hrs by CCK-8 assay; assay type: toxicity, cell-based; conditions: at 12.5 µg/mL, read-out: Activity
# Staphylococcus aureus [19] = assay: Bactericidal activity against methicillin-resistant Staphylococcus aureus NCTC 10442 assessed as bacterial killing at 4 time of MIC concentration incubated for 2 hrs by time-kill assay; assay type: functional
# Cell membrane = assay: Induction of cytoplasmic membrane permeabilization in methicilin-resistant Staphylococcus aureus […] assessed as disruption of cell membrane integrity by measuring increase in fluorescence intensity at 1 to 8 times of MIC concentration measured upto 60 mins by SYTOX green dye based fluorescence analysis; assay type: cell membranes; conditions: NCTC 10442
# Lipopolysaccharide (LPS) [20] = assay: Displacement of BODIPY-TR-cadaverine from Escherichia coli lipopolysaccharide (LPS) assessed as increase in fluorescence intensity at 1 times MIC measured after 30 mins by fluorescence spectrophotometric analysis; assay type: subcellular
# Lipoteichoic acid [21] = assay: Displacement of BODIPY-TR-cadaverine from Bacillus subtilis lipoteichoic acid (LTA) assessed as increase in fluorescence intensity at 2 times MIC measured after 30 mins by fluorescence spectrophotometric analysis
# Lipoteichoic acid [22] = assay: Displacement of BODIPY-TR-cadaverine from Bacillus subtilis lipoteichoic acid (LTA) assessed as increase in fluorescence intensity at 4 times MIC measured after 30 mins by fluorescence spectrophotometric analysis
# Lipopolysaccharide (LPS) [23] = assay: Displacement of BODIPY-TR-cadaverine from Escherichia coli lipopolysaccharide (LPS) assessed as increase in fluorescence intensity at 4 times MIC measured after 30 mins by fluorescence spectrophotometric analysis; assay type: subcellular
# Staphylococcus aureus [24] = assay: (§1) Bactericidal activity against methicillin-resistant Staphylococcus aureus NCTC 10442 assessed as up-regulation of molecular functions related gene expression by measuring aminoacyl-tRNA hydrolase activity (GO:0004045) at 4 times of MIC concentration measured after 90 mins incubation by RNA sequencing (RNA-seq) study; assay type: functional, organism-based
# Staphylococcus aureus [25] = assay: as §1, with “uracil DNA N-glycosylase” for “aminoacyl-tRNA hydrolase”, “(GO:0004844)” for “(GO:0004045)”; assay type: functional, organism-based
# Escherichia coli [26] = assay: Bactericidal activity against Escherichia coli ATCC 25922 assessed as down-regulation down of ferroxidase activity (GO:0004322) at 4 times of MIC concentration measured after 90 mins incubation by RNA sequencing (RNA-seq) study; assay type: functional, organism-based
# Staphylococcus aureus [27] = assay: Bactericidal activity against methicillin-resistant Staphylococcus aureus NCTC 10442 assessed as change in amino acid metabolism gene expression at 4 times of MIC concentration measured after 90 mins incubation by RNA sequencing (RNA-seq) study; assay type: functional, organism-based
# Staphylococcus aureus [28] = assay: Bactericidal activity against methicillin-resistant Staphylococcus aureus NCTC 10442 assessed as up regulation of phosphonate and phosphinate metabolism gene expression at 4 times of MIC concentration measured after 90 mins incubation by RNA sequencing (RNA-seq) study; assay type: functional, organism-based
# Escherichia coli [29] = assay: (§2) Bactericidal activity against Escherichia coli ATCC 25922 assessed as change in cell death associated gene expression by measuring down-regulation of LPS export ABC transporter periplasmic-encoding gene (lptC, D1792_RS12575) gene expression at 4 times of MIC concentration measured after 90 mins incubation by RNA sequencing (RNA-seq) study; assay type: functional, organism-based
# Escherichia coli [30] = assay: as §2, with “CDPglycerol glycero-phosphotransferase (D1792_RS11350)” for “LPS export ABC transporter periplasmic-encoding gene (lptC, D1792_RS12575)”; assay type: functional, organism-based
# Escherichia coli [31] = assay: as §2, with “(D1792_RS11370)” for “(lptC, D1792_RS12575)”; assay type: functional, organism-based
# Staphylococcus aureus [32] = assay: In vivo antibacterial activity against Staphylococcus aureus ATCC 29213 infected C57BL6 mouse corneal infection model assessed as reduction in bacterial burden at 3 mg/ml, TOP 4 times in a day for 3 consecutive days; assay type: functional; conditions: time 3 day
# [33] = Toxicity in C57BL6 mouse assessed as corneal damage treated in eyeballs 4 times in a day for 3 consecutive days; conditions: in vivo, topical_or_ocular
compound,measurement,setting,value
C=C(C)[C@@H]1CCC(C)=C[C@H]1c1c(OCCCNC(=N)N)cc(CCCCC)cc1OCCCNC(=N)N,MIC,Staphylococcus aureus [1],0.78 µg/mL
same,MIC,Staphylococcus aureus [2],0.39 µg/mL
same,MIC,Escherichia coli [3],3.12 µg/mL
same,MIC,Acinetobacter baumannii,3.12 µg/mL
same,MIC,Klebsiella pneumoniae [4],1.56 µg/mL
same,HC50 at 1 h,[5],> 200 µg/mL
same,MIC,Staphylococcus aureus [6],0.78 µg/mL
same,MIC,Klebsiella pneumoniae [7],3.12 µg/mL
same,MIC,Staphylococcus aureus [8],1.56 µg/mL
same,MIC,Staphylococcus aureus [9],0.39 µg/mL
same,MIC,Staphylococcus aureus [10],0.39 µg/mL
same,MIC,Klebsiella pneumoniae [11],3.12 µg/mL
same,MIC,Staphylococcus aureus [12],0.39 µg/mL
same,MIC,Escherichia coli [13],1.56 µg/mL
same,MIC,Klebsiella pneumoniae [14],3.12 µg/mL
same,MIC,Staphylococcus aureus [15],0.39 µg/mL
same,MIC,Klebsiella pneumoniae [16],3.12 µg/mL
same,"viability at 24 h, 12.5 microg/ml",[17],80.4%
same,"viability at 24 h, 12.5 microg/ml",[18],91.3%
same,inhibition (INH),Staphylococcus aureus [19],99.9%
same,Activity,Cell membrane,Active
same,Activity,Lipopolysaccharide (LPS) [20],27.7%
same,Activity,Lipoteichoic acid [21],19.8%
same,Activity,Lipoteichoic acid [22],33.7%
same,Activity,Lipopolysaccharide (LPS) [23],76.5%
same,Activity,Staphylococcus aureus [24],Active
same,Activity,Staphylococcus aureus [25],Active
same,Activity,Escherichia coli [26],Active
same,Activity,Staphylococcus aureus [27],Active
same,Activity,Staphylococcus aureus [28],Active
same,Activity,Escherichia coli [29],Active
same,Activity,Escherichia coli [30],Active
same,Activity,Escherichia coli [31],Active
same,Activity,Staphylococcus aureus [32],6.99 log10FFU/ml
same,Activity,[33],Non-Toxic
